Values quoted from earlier work, collected in PubChem BioAssay AID1259409 (Chemical Carcinogenesis Research Information System (CCRIS), 2018).

System: rodent chemically induced tumor inhibition, incidence and multiplicity
Test: CCRIS tumor inhibitor studies
Conditions: Route [Inhibitor]: GAVAGE, Species: MOUSE, Strain/Sex: CD-1/FEMALE, Target Tissue: Type of Lesion: SKIN: PAPILLOMA

Cc1csc(NC(=O)C(C(=O)OC(C)C)=C2SCS2)n1
tumour outcome (control, treated, inhibition, significance) (Carcinogen: BENZO[A]PYRENE [50-32-8], Dose [Inhibitor]: 0, 150 MG/KG BW IN TRIOCTANOIN 1 D AND 2 HR PRIOR TO CARCINOGEN DOSE (STUDY DURATION: 21 WK), Dose [Carcinogen]: 0.3 UMOL IN 0.2 ML ACETONE ONCE, Promoter: 12-O-TETRADECANOYLPHORBOL-13-ACETATE [16561-29-8]): 92%, 73%, 21%, not calculated
tumour outcome (control, treated, inhibition, significance) (Carcinogen: BENZO[A]PYRENE [50-32-8], Dose [Inhibitor]: 150 MG/KG IN 10 µL TRIOCTANOIN ONCE 1 D AND 2 HR PRIOR TO CARCINOGEN DOSE (STUDY DURATION: 21 WK), Dose [Carcinogen]: 0.3 UMOL IN 0.2 ML ACETONE ONCE (STUDY DURATION: 21 WK), Promoter: 12-O-TETRADECANOYLPHORBOL-13-ACETATE [16561-29-8]): 92%, 75%, 18%, not calculated
tumour outcome (control, treated, inhibition, significance) (Carcinogen: VINYL CARBAMATE, 15805-73-9, Dose [Inhibitor]: 0, 150 MG/KG BW ONCE AT 2 HR AND 1 D PRIOR TO CARCINOGEN DOSE (STUDY DURATION: 22 WK), Dose [Carcinogen]: 11.5 UMOL IN 0.2 ML ACETONE ONCE, Promoter: 12-O-TETRADECANOYLPHORBOL-13-ACETATE, 16561-29-8): 58%, 37%, 36%, not calculated
